The results in this text go back to patent publication US9181255B2, “Fused heteroaromatic pyrrolidinones as SYK inhibitors” (Takeda Pharmaceutical Company Limited, priority 2009, dated 2015).

The target in the assay is SYK (Homo sapiens, UniProt P43405). The assay is described as follows: SYK inhibition assay: SYK-mediated phosphorylation of FAM-labeled substrate (Caliper microfluidic). It is filed as biochemical. Conditions: read-out: SYK Inhibition (pIC50) (converted).

Molecules are shown by their SMILES.

As for `CC(C)C[C@@H](Nc1nc(-c2cnn(C3CC3)c2)c2c(c1F)CNC2=O)C(N)=O` [Example 72, (R)-2-(4-(1-Cyclopropyl-1H-pyrazol-4-yl)-7-fluoro-3-oxo-2,3-dihydro-1H-pyrrolo[3,4-c]pyridin-6-ylamino)-4-methylpentanamide], the IC50 is 31.6 nM.

For the molecule `CC(C)C[C@@H](Nc1nc(-c2ccco2)c2c(c1F)CNC2=O)C(N)=O` [Example 113, (R)-2-(7-Fluoro-4-(furan-2-yl)-3-oxo-2,3-dihydro-1H-pyrrolo[3,4-c]pyridin-6-ylamino)-4-methylpentanamide], the IC50 was 200 nM. The figure for `Cc1c(-c2nc(N[C@@H]3CCCC[C@@H]3N)nc3c2C(=O)NC3)cnn1C` [Example 46, 2-((1R,2S)-2-Aminocyclohexylamino)-4-(1,5-dimethyl-1H-pyrazol-4-yl)-6,7-dihydro-5H-pyrrolo[3,4-d]pyrimidin-5-one] is 1580 nM. As to `CCOC[C@H](N)CNc1nc(Nc2cccc(C)c2)c2c(c1F)CNC2=O` [Example 55, (R)-6-(2-Amino-3-ethoxypropylamino)-7-fluoro-4-(m-tolylamino)-1H-pyrrolo[3,4-c]pyridin-3(2H)-one], the IC50 is 15.8 nM. On to `N[C@H]1COCC[C@H]1Nc1nc(-c2cnn(C(F)F)c2)c2c(c1F)CNC2=O` [Example 125, 6-((3R,4R)-3-Aminotetrahydro-2H-pyran-4-ylamino)-4-(1-(difluoromethyl)-1H-pyrazol-4-yl)-7-fluoro-1H-pyrrolo[3,4-c]pyridin-3(2H)-one], for which the IC50 is 10 nM.

With `N[C@H]1COCC[C@H]1Nc1nc(-c2cnn3ccccc23)c2c(c1F)CNC2=O` [Example 92, 6-((3R,4R)-3-Aminotetrahydro-2H-pyran-4-ylamino)-7-fluoro-4-(pyrazolo[1,5-a]pyridin-3-yl)-1H-pyrrolo[3,4-c]pyridin-3(2H)-one], the IC50 is 12.6 nM. Turning to `N[C@H]1COCC[C@H]1Nc1nc(-c2ccsc2)c2c(c1F)CNC2=O` [Example 103, 6-((3R,4R)-3-Aminotetrahydro-2H-pyran-4-ylamino)-7-fluoro-4-(thiophen-3-yl)-1H-pyrrolo[3,4-c]pyridin-3(2H)-one], the IC50 was 126 nM. To `Cn1cc(-c2nc(N[C@@H]3CCOC[C@@H]3N)cc3c2C(=O)NC3)cn1` [Example 27, 6-((3R,4R)-3-Aminotetrahydro-2H-pyran-4-ylamino)-4-(1-methyl-1H-pyrazol-4-yl)-1H-pyrrolo[3,4-c]pyridin-3(2H)-one] belongs 39.8 nM; to `CC(C)C[C@@H](Nc1nc(-c2cc(C#N)cs2)c2c(c1F)CNC2=O)C(N)=O` [Example 117, (R)-2-(4-(4-Cyanothiophen-2-yl)-7-fluoro-3-oxo-2,3-dihydro-1H-pyrrolo[3,4-c]pyridin-6-ylamino)-4-methylpentanamide], 12.6 nM. Take `Cc1cccc(Nc2nc(NCC(C)(C)N)nc3c2C(=O)NC3)c1` [Example 41, 2-(2-Amino-2-methylpropylamino)-4-(m-tolylamino)-6,7-dihydro-5H-pyrrolo[3,4-c]pyrimidin-5-one]: the IC50 is 1260 nM. To `Cc1cccc(Nc2nc(NCC(N)C(F)(F)F)cc3c2C(=O)NC3)c1` (stereo not drawn) [Example 56, 6-(2-Amino-3,3,3-trifluoropropylamino)-4-(m-tolylamino)-1H-pyrrolo[3,4-c]pyridin-3(2H)-one] belongs 2510 nM; to `Cc1cccc(Nc2nc(N[C@@H]3CCOC[C@@H]3N)cc3c2C(=O)NC3)c1` [Example 85, 6-((3R,4R)-3-Aminotetrahydro-2H-pyran-4-ylamino)-4-(m-tolylamino)-1H-pyrrolo[3,4-c]pyridin-3(2H)-one], 3.98 nM; to `N[C@H]1CCCC[C@H]1Nc1nc2c(c(-c3cnc4ccccn34)n1)C(=O)NC2` [Example 20, 2-((1R,2S)-2-Aminocyclohexylamino)-4-(imidazo[1,2-a]pyridin-3-yl)-6,7-dihydro-5H-pyrrolo[3,4-d]pyrimidin-5-one], 200 nM. As for `Cc1cccc(Nc2nc(N(C)CCN)nc3c2C(=O)NC3)c1` [Example 43, 2-((2-Aminoethyl)(methyl)amino)-4-(m-tolylamino)-6,7-dihydro-5H-pyrrolo[3,4-d]pyrimidin-5-one], the IC50 was 5010 nM. As for `N[C@H]1CCCC[C@H]1Nc1nc(-c2cnn(C(F)F)c2)c2c(c1F)CNC2=O` [Example 62, 6-((1R,2S)-2-Aminocyclohexylamino)-4-(1-(difluoromethyl)-1H-pyrazol-4-yl)-7-fluoro-1H-pyrrolo[3,4-c]pyridin-3(2H)-one], the IC50 is 10 nM. Turning to `N[C@@H]1[C@H](Nc2nc(-c3cnn(C4CC4)c3)c3c(c2F)CNC3=O)CCCC1(F)F` (relative stereo) [Example 69, 6-(cis-2-amino-3,3-difluorocyclohexylamino)-4-(1-cyclopropyl-1H-pyrazol-4-yl)-7-fluoro-1H-pyrrolo[3,4-c]pyridin-3(2H)-one], the IC50 was 158 nM. For the molecule `CCN1CCN(c2nc3c(c(Nc4cccc(C)c4)n2)C(=O)NC3)CC1` [Example 9, 2-(4-Ethylpiperazin-1-yl)-4-(m-tolylamino)-6,7-dihydro-5H-pyrrolo[3,4-d]pyrimidin-5-one], the IC50 was 7940 nM. As to `Cc1cccc(Nc2nc(N[C@H](CC(C)C)C(N)=O)cc3c2C(=O)NC3)c1` [Example 57, (R)-4-Methyl-2-(3-oxo-4-(m-tolylamino)-2,3-dihydro-1H-pyrrolo[3,4-c]pyridin-6-ylamino)pentanamide], the IC50 is 15.8 nM. To `Cc1cccc(Nc2nc(NCC3CCCN3)nc3c2C(=O)NC3)c1` (stereo not drawn) [Example 44, 2-(Pyrrolidin-2-ylmethylamino)-4-(m-tolylamino)-6,7-dihydro-5H-pyrrolo[3,4-d]pyrimidin-5-one] belongs 631 nM. Turning to `CC(C)C[C@@H](Nc1nc(-c2cccs2)c2c(c1F)CNC2=O)C(N)=O` [Example 126, (R)-2-(7-Fluoro-3-oxo-4-(thiophen-2-yl)-2,3-dihydro-1H-pyrrolo[3,4-c]pyridin-6-ylamino)-4-methylpentanamide], the IC50 was 7.94 nM.

`CC(C)C[C@@H](Nc1nc(-c2ccsc2)c2c(c1F)CNC2=O)C(N)=O` [Example 110, (R)-2-(7-Fluoro-3-oxo-4-(thiophen-3-yl)-2,3-dihydro-1H-pyrrolo[3,4-c]pyridin-6-ylamino)-4-methylpentanamide]: the IC50 is 50.1 nM.

Regarding `N[C@H]1CCCC[C@H]1Nc1nc(-c2cccs2)c2c(c1F)CNC2=O` [Example 129, 6-((1R,2S)-2-Aminocyclohexylamino)-7-fluoro-4-(thiophen-2-yl)-1H-pyrrolo[3,4-c]pyridin-3(2H)-one], the IC50 is 3.98 nM. With `Cc1ccc(-c2nc(N[C@@H]3CCOC[C@@H]3N)c(F)c3c2C(=O)NC3)s1` [Example 123, 6-((3R,4R)-3-Aminotetrahydro-2H-pyran-4-ylamino)-7-fluoro-4-(5-methylthiophen-2-yl)-1H-pyrrolo[3,4-c]pyridin-3(2H)-one], the IC50 is 7.94 nM. The figure for `Cc1ncc(-c2nc(N[C@@H]3CCCC[C@@H]3N)c(F)c3c2C(=O)NC3)s1` [Example 122, 6-((1R,2S)-2-Aminocyclohexylamino)-7-fluoro-4-(2-methylthiazol-5-yl)-1H-pyrrolo[3,4-c]pyridin-3(2H)-one] is 631 nM.
